# According to patent publication US8772267B2, “Treatment of spinal mechanical pain” (New York University, priority 2002, dated 2014):
# What was measured:
# antinociception = settings: injected into the tails of mice; cited from earlier work
# [1] = known; cited from earlier work
# [2] = Adverse effects in the infused subjects; format: in vivo, human
# Method: (§1) Three subjects, suffering from chronic daily (longer than 1 year) axial mechanical pain of the spine, were given approximately 1.2 mg per kg pamidronate as an intravenous infusion over 4 hours once a day for three consecutive days (total 3.6 mg/kg).
# (§2) On the second day of infusion, 2 of the 3 subjects reported myalgias that responded well to anti-inflammatory (NSAID) agents. […] Assessments of axial spinal pain using a numerical scale (0=no pain; 10=the worst pain imaginable) were performed at baseline and at 1 month, 2 month, 4 month, and 6 month follow-up visits.
# bone resorption = settings: animal studies, cited from earlier work
# [3] = test system: bone pain from metastatic cancer; settings: patients suffering from bone pain from metastatic cancer; cited from earlier work
# [4] = Bone density of the infused subjects; format: in vivo, human; settings: all three subjects
# Method: as §1
# Assessments of axial spinal pain using a numerical scale (0=no pain; 10=the worst pain imaginable) were performed at baseline and at 1 month, 2 month, 4 month, and 6 month follow-up visits.
# [5] = test system: axial mechanical pain of the spine; experiment: Axial spinal pain on a numerical scale after intravenous infusion in subjects with chronic spinal mechanical pain; format: in vivo, human
# Method: as §1, §2
# [6] = Subject 1, baseline 8, scale 0-10, 1.2 mg/kg iv once a day for 3 days
# [7] = Subject 2, baseline 8-9, scale 0-10, 1.2 mg/kg iv once a day for 3 days
# [8] = Subject 3, baseline 5, scale 0-10, 1.2 mg/kg iv once a day for 3 days
smiles,measurement,setting,value
O=P(O)(O)C(Cl)(Cl)P(=O)(O)O [clodronate],antinociceptive effect,antinociception,dose-dependent antinociception
CC(O)(P(=O)(O)O)P(=O)(O)O [etidronate],antinociceptive effect,antinociception,analgesic effect only at the highest dose tested
CC(C)Cc1ccc(C(C)C(=O)O)cc1 (centres unmarked) [ibuprofen],duration of analgesic effect,[1],only a few hours
CC(=O)Oc1ccccc1C(=O)O [acetylsalicylic acid],antinociceptive effect,antinociception,dose-dependent antinociception
CC(=O)Nc1ccc(O)cc1 [acetaminophen],duration of analgesic effect,[1],only a few hours
NCCCC(O)(P(=O)(O)O)P(=O)(O)O [alendronate],antinociceptive effect,antinociception,analgesic effect only at the highest dose tested
NCCC(O)(P(=O)(O)O)P(=O)(O)O [pamidronate],subjects reporting myalgias,"[2]; second day of infusion, responded well to NSAID agents",2 of the 3
same,"hypocalcemia, cardiac, hepatic or renal impairments","[2]; three subjects, 3.6 mg/kg total iv","did not exhibit any hypocalcemia, cardiac, hepatic or renal impairments"
same,effect on bone resorption,bone resorption; doses recommended for the treatment of hypercalcemia,inhibits bone resorption apparently without inhibiting bone formation and mineralization
same,effect on accelerated bone resorption from osteoclast hyperactivity induced by various tumors,bone resorption,inhibits the accelerated bone resorption
same,longest reported duration of analgesic effect,[3],2-3 weeks
same,bone density change,[4],increase in their bone density
same,bone density change at 6 months post-infusion,[4]; 6 months post-infusion,increase in their bone density
same,antinociceptive effect,antinociception,dose-dependent antinociception
same,use of opioid agents,[5]; 2 months from initiation of infusion therapy,all subjects discontinued the opioid agents
same,pain status of all three subjects 6 months after the 3-day therapy,"[5]; 6 months after therapy, all three subjects",pain free
same,"axial spinal pain, numerical scale, 1 month","[5]; Subject 1 (DDD and osteopenia), baseline 8, 0=no pain, 10=worst pain imaginable, 1.2 mg/kg iv over 4 h once a day for 3 days",4
same,"axial spinal pain, numerical scale, 2 months",[5]; [6],0
same,"axial spinal pain, numerical scale, 4 months",[5]; [6],0
same,"axial spinal pain, numerical scale, 6 months",[5]; [6],0
same,"axial spinal pain, numerical scale, 1 month","[5]; Subject 2 (DDD and moderate osteoporosis), baseline 8-9, scale 0-10, 1.2 mg/kg iv once a day for 3 days",5
same,"axial spinal pain, numerical scale, 2 months",[5]; [7],0
same,"axial spinal pain, numerical scale, 4 months",[5]; [7],0
same,"axial spinal pain, numerical scale, 6 months",[5]; [7],0
same,"axial spinal pain, numerical scale, 1 month","[5]; Subject 3 (DDD), baseline 5, scale 0-10, 1.2 mg/kg iv once a day for 3 days",0
same,"axial spinal pain, numerical scale, 2 months",[5]; [8],0
same,"axial spinal pain, numerical scale, 4 months",[5]; [8],0
same,"axial spinal pain, numerical scale, 6 months",[5]; [8],0
same,duration of pain relieving effects,[5]; iv treatment of chronic spinal mechanical pain,≥ 6 months
